# Results taken from patent US20050182073A1, “5-Phenylpyrimidines” (priority 2004, published 2005).
# Experiment: logP determination by HPLC (EEC Directive 79/831 Annex V. A8)
# Assay type: physicochemical
# Settings: gradient method, acetonitrile/0.1% aqueous phosphoric acid
# Procedure: The logP values were determined in accordance with EEC Directive 79/831 Annex V. A8 by HPLC (gradient method, acetonitrile/0.1% aqueous phosphoric acid).
row,chromatographic logP,Structure (SMILES)
1,3.27,CC(C)Cc1nc([S+](C)[O-])nc(Cl)c1-c1ccc(F)cc1Cl (stereo not shown) [4-chloro-5-(2-chloro-4-fluorophenyl)-6-isobutyl-2-(methylsulphinyl)pyrimidine]
2,5.67,"CSc1nc(Cl)c(-c2ccc(F)cc2Cl)c(CC(C)C)n1 [II-2, 4-chloro-5-(2-chloro-4-fluorophenyl)-6-isobutyl-2-(methylthio)pyrimidine]"
3,3.79,"CC(C)Cc1nc(-n2cncn2)nc(Cl)c1-c1ccc(F)cc1Cl [Example 1, 4-chloro-5-(2-chloro-4-fluorophenyl)-6-isobutyl-2-(1H-1,2,4-triazol-1-yl)pyrimidine]"
4,3.82,"CC(C)Cc1nc(S(C)(=O)=O)nc(Cl)c1-c1ccc(F)cc1Cl [III-2a, 4-chloro-5-(2-chloro-4-fluorophenyl)-6-isobutyl-2-(methylsulphonyl)pyrimidine]"
